The test system of assay [1] is wild type non-transformed Ba/F3 cells. The assay is described as follows: phenoresponse-based cellular assay, wild type Ba/F3 control cells. Set-up: species or system murine. The note with it: Mus musculus; concentration inhibiting growth of the cell line by 50% in the cellular assay; wt BaF3 control cells; read-out: wt BaF3 (IC50 activity category).
Assay [2] concerns the target T1, Ba/F3 cells expressing p210Bcr-Abl-T315I (Homo sapiens, UniProt P00519, T315I, cells depend on it).
T1 construct: fused on or other part: P11274 (Breakpoint cluster region protein)
The assay is described as follows: phenoresponse-based cellular assay (cell count and viability), Ba/F3 T315I test cells.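 Note: cells counted by automated microcell imaging, viability scored by trypan blue exclusion, phenoresponse judged against parental Ba/F3 and Ba/F3 carrying wild-type p210Bcr-Abl.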 The conditions noted are these: concentration inhibiting growth of the cell line by 50% in the cellular assay, read-out: T315I (IC50 activity category). Set-up: species or system murine.

With `Oc1c(Cl)cc(Br)cc1/C=N/Nc1ncc(F)c(N2CCOCC2)n1`, the half-maximal inhibitory concentration (IC50) in assay [1] was below 1000 nM. The GI50 in assay [2] is below 300 nM.
Consider `Oc1ccccc1/C=N/Nc1ncc(F)c(N2CCOCC2)n1`, for which the IC50 in assay [1] is below 10000 nM. In addition, in assay [2], the GI50 is below 10000 nM.
For `Fc1cnc(N/N=C/c2ccccn2)nc1N1CCOCC1`, the half-maximal inhibitory concentration (IC50) in assay [1] is below 1000 nM. In assay [2], the GI50 was below 1000 nM.
Take `Oc1ccc(Br)cc1/C=N/Nc1ncc(F)c(N2CCOCC2)n1`: the half-maximal inhibitory concentration (IC50) in assay [1] was below 1000 nM. For the same molecule, the GI50 in assay [2] is below 1000 nM.
Consider `Cc1ccccc1/C=N/Nc1ncc(F)c(N2CCOCC2)n1`, for which, in assay [1], the IC50 was at least 10000 nM. The GI50 in assay [2] is above 10000 nM.
As for `Cc1ccc(/C=N/Nc2ncc(F)c(N3CCOCC3)n2)cc1`, the half-maximal inhibitory concentration (IC50) in assay [1] was at least 10000 nM. Further, in assay [2], the GI50 was above 10000 nM.
Consider `Fc1cnc(N/N=C/c2ccccc2)nc1N1CCOCC1`, for which the IC50 in assay [1] was at least 10000 nM. Further, in assay [2], the GI50 is above 10000 nM.
For `Oc1c(Cl)cc(-c2cccc(C(F)(F)F)c2)cc1/C=N/Nc1ncc(F)c(N2CCOCC2)n1` the same measures were below 1000 nM and below 300 nM.
Take `O=C(Nc1cccc(C(F)(F)F)c1)c1cc(Cl)c(O)c(/C=N\Nc2ncc(F)c(N3CCOCC3)n2)c1`: the IC50 in assay [1] is below 1000 nM. Further, the GI50 in assay [2] was below 1000 nM.
`O=C(Nc1cccc(C(F)(F)F)c1)c1cccc(/C=N/Nc2ncc(F)c(N3CCOCC3)n2)n1`: in assay [1], the half-inhibitory concentration (IC50) is at least 10000 nM. Further, the GI50 in assay [2] was above 10000 nM.
In the case of `O=C(Nc1cccc(C(F)(F)F)c1)c1ccc(/C=N/Nc2ncc(F)c(N3CCOCC3)n2)nc1`, the IC50 in assay [1] is below 10000 nM. For the same molecule, in assay [2], the GI50 is below 1000 nM.
For `Fc1cnc(N/N=C/c2ccc(-c3cccc(C(F)(F)F)c3)cn2)nc1N1CCOCC1` the same measures were below 1000 nM and below 1000 nM.
The like results for `O=C(C/C=N/Nc1ncc(F)c(N2CCOCC2)n1)Nc1cccc(C(F)(F)F)c1` were, in that order, at least 10000 nM and above 10000 nM.
`Fc1cnc(N/N=C/c2ccc(Nc3cccc(C(F)(F)F)c3)cn2)nc1N1CCOCC1`: in assay [1], the half-inhibitory concentration (IC50) was below 300 nM. In assay [2], the GI50 was below 300 nM.
On to `Cc1cccc(Cl)c1NC(=O)C/C=N/Nc1ncc(F)c(N2CCOCC2)n1`, for which the IC50 in assay [1] is at least 10000 nM. The GI50 in assay [2] was above 10000 nM.
Regarding `Oc1ccc(-c2ccc(Nc3ccc(/C=N/Nc4ncc(F)c(N5CCOCC5)n4)nc3)cc2C(F)(F)F)cc1`, the half-inhibitory concentration (IC50) in assay [1] was below 300 nM. In assay [2], the GI50 is below 300 nM.
As for `Oc1cccc(-c2ccc(Nc3ccc(/C=N/Nc4ncc(F)c(N5CCOCC5)n4)nc3)cc2)c1`, the IC50 in assay [1] was below 300 nM. Besides, the GI50 in assay [2] is below 300 nM.
With `Fc1cnc(N/N=C/c2ccc(Nc3ccc(N4CCOCC4)cc3)cn2)nc1N1CCOCC1`, the IC50 in assay [1] was below 1000 nM. Also, the GI50 in assay [2] was below 1000 nM.
For the molecule `Fc1cnc(N/N=C/c2ccc(Nc3ccc(-c4cccnc4)cc3)cn2)nc1N1CCOCC1`, the IC50 in assay [1] is below 1000 nM. Further, the GI50 in assay [2] was below 300 nM.
On to `Cc1cccc(Cl)c1-c1ccc(Nc2ccc(/C=N/Nc3ncc(F)c(N4CCOCC4)n3)nc2)cc1`, for which, in assay [1], the half-maximal inhibitory concentration (IC50) is below 300 nM. Further, the GI50 in assay [2] was below 300 nM.
With `Fc1cnc(N/N=C/c2ccc(Nc3ccc(-c4ccccn4)c(Cl)c3)cn2)nc1N1CCOCC1`, in assay [1], the IC50 was below 1000 nM. The GI50 in assay [2] was below 1000 nM.
In the case of `CC(C(=O)O)c1ccc(Nc2ccc(/C=N/Nc3ncc(F)c(N4CCOCC4)n3)nc2)cc1` (stereo not drawn), the IC50 in assay [1] was at least 10000 nM. For the same molecule, the GI50 in assay [2] is above 10000 nM.
In the case of `Oc1cccc(-c2cccc(Nc3ccc(/C=N/Nc4ncc(F)c(N5CCOCC5)n4)nc3)c2)c1`, the IC50 in assay [1] is below 1000 nM. Also, the GI50 in assay [2] was below 300 nM.
As for `Fc1cnc(N/N=C/c2ccc(Nc3cccc(-n4ccnc4)c3)cn2)nc1N1CCOCC1`, the IC50 in assay [1] was below 1000 nM. The GI50 in assay [2] is below 1000 nM.
On to `Cc1cc(Nc2ccc(/C=N/Nc3ncc(F)c(N4CCOCC4)n3)nc2)cc(N2CCNCC2)c1`, for which, in assay [1], the half-maximal inhibitory concentration (IC50) is below 10000 nM. For the same molecule, in assay [2], the GI50 is below 1000 nM.
On to `O=C(NNc1ncc(F)c(N2CCOCC2)n1)c1ccc(Nc2cccc(C(F)(F)F)c2)cn1`, for which the IC50 in assay [1] was below 1000 nM. Also, the GI50 in assay [2] was below 1000 nM.
As to `Cc1cc(Nc2cccc(C(F)(F)F)c2)ccc1/C=N/Nc1ncc(F)c(N2CCOCC2)n1`, the IC50 in assay [1] is at least 10000 nM. Further, in assay [2], the GI50 was above 10000 nM.
As to `CN(C)c1cc(O)cc(Nc2ccc(/C=N/Nc3ncc(F)c(N4CCOCC4)n3)nc2)c1`, the IC50 in assay [1] was below 10000 nM. Moreover, in assay [2], the GI50 was below 1000 nM.
The like results for `Fc1cnc(N/N=C/c2ccc(Nc3cccc(C(F)(F)F)c3)cn2)nc1NCc1ccccc1` were, in that order, below 300 nM and below 300 nM.
`Fc1cnc(N/N=C/c2ccc(Nc3cccc(C(F)(F)F)c3)cn2)nc1NCC1CC1`: the IC50 in assay [1] is below 300 nM. In addition, in assay [2], the GI50 is below 300 nM.
On to `Fc1cnc(N/N=C/c2ccc(Nc3cccc(C(F)(F)F)c3)cn2)nc1NCCN1CCOCC1`, for which the half-maximal inhibitory concentration (IC50) in assay [1] was below 300 nM. Besides, in assay [2], the GI50 was below 300 nM.
In the case of `CN(/N=C/c1ccc(Nc2cccc(C(F)(F)F)c2)cn1)c1ncc(F)c(N2CCOCC2)n1`, the IC50 in assay [1] is below 300 nM. The GI50 in assay [2] was below 300 nM.
Turning to `C/C(=N\Nc1ncc(F)c(N2CCOCC2)n1)c1ccc(Nc2cccc(C(F)(F)F)c2)cn1`, the concentration for half-maximal inhibition (IC50) in assay [1] is below 300 nM. Further, the GI50 in assay [2] was below 300 nM.
Turning to `Fc1cnc(N/N=C/c2ccc(Nc3cccc(C(F)(F)F)c3)cn2)nc1-c1cncc(-c2ccccc2)c1`, the IC50 in assay [1] is below 1000 nM. In addition, the GI50 in assay [2] is below 1000 nM.
Regarding `Fc1cnc(N/N=C/c2ccc(Nc3cccc(C(F)(F)F)c3)cn2)nc1-c1cncc(C2CC2)c1`, in assay [1], the 50% inhibitory concentration (IC50) was below 10000 nM. In addition, the GI50 in assay [2] was below 10000 nM.
As for `Oc1cccc(Nc2cccc(Nc3ccc(/C=N/Nc4ncc(F)c(N5CCOCC5)n4)nc3)c2)c1`, in assay [1], the 50% inhibitory concentration (IC50) was below 1000 nM. Also, the GI50 in assay [2] is below 1000 nM.

(Values after US20090275070A1, “Compounds and Methods of Identifying, Synthesizing, Optimizing and Profiling Protein Modulators” (priority 2005, published 2009).)
